Source: ChEMBL document CHEMBL3046587, “Baseline sensitivity of Monilinia laxa from Greece to fenhexamid and analysis of fenhexamid-resistant mutants” (Crop Prot, 2013)
≈ marks a conversion by molar mass, not a printed value.

Experiments:
Assay type in all cases: functional, organism-based
Monilinia laxa [1] = experiment: Fungitoxicity against highly fenhexamid resistant Monilinia laxa MF-2 assessed as reduction in mycelial growth measured at 25 degC after 4 days; conditions: MF-2, 96 h
Monilinia laxa [2] = experiment: Fungitoxicity against wild type Monilinia laxa K2 assessed as reduction in mycelial growth measured at 25 degC after 4 days; conditions: K2, 96 h
Monilinia laxa [3] = experiment: Fungitoxicity against highly fenhexamid resistant Monilinia laxa MF-3 assessed as reduction in mycelial growth measured at 25 degC after 4 days; conditions: MF-3, 96 h
Monilinia laxa [4] = experiment: Fungitoxicity against moderately fenhexamid resistant Monilinia laxa MF-7 assessed as reduction in mycelial growth measured at 25 degC after 4 days; conditions: MF-7, 96 h
Monilinia laxa [5] = experiment: Fungitoxicity against moderately fenhexamid resistant Monilinia laxa MF-6 assessed as reduction in mycelial growth measured at 25 degC after 4 days; conditions: MF-6, 96 h
Monilinia laxa [6] = experiment: Fungitoxicity against moderately fenhexamid resistant Monilinia laxa MF-1 assessed as reduction in mycelial growth measured at 25 degC after 4 days; conditions: MF-1, 96 h
Monilinia laxa [7] = experiment: Fungitoxicity against highly fenhexamid resistant Monilinia laxa MF-5 assessed as reduction in mycelial growth measured at 25 degC after 4 days; conditions: MF-5, 96 h
Monilinia laxa [8] = experiment: Fungitoxicity against moderately fenhexamid resistant Monilinia laxa MF-4 assessed as reduction in mycelial growth measured at 25 degC after 4 days; conditions: MF-4, 96 h
Monilinia laxa [9] = experiment: Fungitoxicity against moderately fenhexamid resistant Monilinia laxa MF-22 assessed as reduction in mycelial growth measured at 25 degC after 4 days; conditions: MF-22, 96 h
Monilinia laxa [10] = experiment: Fungitoxicity against moderately fenhexamid resistant Monilinia laxa MF-8 assessed as reduction in mycelial growth measured at 25 degC after 4 days; conditions: MF-8, 96 h

SMILES	EC50 (Monilinia laxa [1]) [µg/mL]	EC50 (Monilinia laxa [2]) [µg/mL]	EC50 (Monilinia laxa [3]) [µg/mL]	EC50 (Monilinia laxa [4]) [µg/mL]	EC50 (Monilinia laxa [5]) [µg/mL]	EC50 (Monilinia laxa [6]) [µg/mL]	EC50 (Monilinia laxa [7]) [µg/mL]	EC50 (Monilinia laxa [8]) [µg/mL]	EC50 (Monilinia laxa [9]) [µg/mL]	EC50 (Monilinia laxa [10]) [µg/mL]
N#Cc1c[nH]cc1-c1cccc2c1OC(F)(F)O2 [FLUDIOXONIL]	0.03 (≈ 0.121 µM)	0.01 (≈ 0.0403 µM)	0.01 (≈ 0.0403 µM)	0.01 (≈ 0.0403 µM)	0.02 (≈ 0.0806 µM)	0.02 (≈ 0.0806 µM)	0.01 (≈ 0.0403 µM)	0.03 (≈ 0.121 µM)	0.02 (≈ 0.0806 µM)	0.05 (≈ 0.201 µM)
C[Si](Cn1cncn1)(c1ccc(F)cc1)c1ccc(F)cc1 [FLUSILAZOLE]	0.1 (≈ 0.317 µM)	0.1 (≈ 0.317 µM)	0.1 (≈ 0.317 µM)	0.2 (≈ 0.634 µM)	0.3 (≈ 0.951 µM)	0.2 (≈ 0.634 µM)	0.1 (≈ 0.317 µM)	0.1 (≈ 0.317 µM)	0.4 (≈ 1.27 µM)	0.2 (≈ 0.634 µM)
COC(=O)N(OC)c1ccccc1COc1ccn(-c2ccc(Cl)cc2)n1 [PYRACLOSTROBIN]	0.5 (≈ 1.29 µM)	0.3 (≈ 0.774 µM)	0.4 (≈ 1.03 µM)	0.4 (≈ 1.03 µM)	0.1 (≈ 0.258 µM)	0.2 (≈ 0.516 µM)	0.4 (≈ 1.03 µM)	0.3 (≈ 0.774 µM)	0.2 (≈ 0.516 µM)	0.4 (≈ 1.03 µM)
CC(Cc1ccc(C(C)(C)C)cc1)CN1C[C@@H](C)O[C@@H](C)C1 (some centres undefined) [FENPROPIMORPH]	0.18 (≈ 0.593 µM)	0.14 (≈ 0.461 µM)	0.11 (≈ 0.362 µM)	0.1 (≈ 0.33 µM)	1 (≈ 3.3 µM)	1 (≈ 3.3 µM)	0.15 (≈ 0.494 µM)	0.12 (≈ 0.395 µM)	0.5 (≈ 1.65 µM)	0.3 (≈ 0.989 µM)
COC(=O)Nc1nc2ccccc2[nH]1 [CARBENDAZIM]				0.3 (≈ 1.57 µM)	0.2 (≈ 1.05 µM)		0.5 (≈ 2.62 µM)	0.2 (≈ 1.05 µM)		
